Data from ChEMBL document CHEMBL4265965, “Dichloroacetophenones targeting at pyruvate dehydrogenase kinase 1 with improved selectivity and antiproliferative activity: Synthesis and structure-activity relationships” (Bioorg Med Chem Lett, 2018).
Calls of active or inactive are those of the source. The rule behind the calls is not given here.

How the values were obtained:
[1] = system: A549; assay: Antiproliferative activity against human A549 cells assessed as inhibition of cell proliferation at 6 uM after 72 hrs by MTT assay relative to control; assay type: functional; conditions: for inhibition at 6 µM: A549, 72 h
[2] = system: NCI-H1650; assay: Antiproliferative activity against human NCI-H1650 cells assessed as inhibition of cell proliferation at 12 uM after 72 hrs by MTT assay relative to control; assay type: functional; conditions: for inhibition at 12 µM: NCI-H1650, 72 h
[3] = system: A549; assay: Antiproliferative activity against human A549 cells assessed as inhibition of cell proliferation at 12 uM after 72 hrs by MTT assay relative to control; assay type: functional; conditions: for inhibition at 12 µM: A549, 72 h
[4] = system: NCI-H1975; assay: Antiproliferative activity against human NCI-H1975 cells assessed as inhibition of cell proliferation after 72 hrs by MTT assay; assay type: functional, cell-based; conditions: NCI-H1975, 72 h
[5] = molecular target: T1, [Pyruvate dehydrogenase (acetyl-transferring)] kinase isozyme 1, mitochondrial (Homo sapiens, UniProt Q15118); assay: Inhibition of PDK1 in human NCI-H1975 cells assessed as reduction in pyruvate dehydrogenase phosphorylation at 10 uM after 24 hrs by Western blot analysis; assay type: cell-based
[6] = system: NCI-H1975; assay: Antiproliferative activity against human NCI-H1975 cells assessed as inhibition of cell proliferation at 2 uM after 72 hrs by MTT assay relative to control; assay type: functional; conditions: for inhibition at 2 µM: NCI-H1975, 72 h
[7] = system: NCI-H1975; assay: Antiproliferative activity against human NCI-H1975 cells assessed as inhibition of cell proliferation at 12 uM after 72 hrs by MTT assay relative to control; assay type: functional; conditions: for inhibition at 12 µM: NCI-H1975, 72 h
[8] = system: NCI-H1975; assay: Antiproliferative activity against human NCI-H1975 cells assessed as inhibition of cell proliferation at 6 uM after 72 hrs by MTT assay relative to control; assay type: functional; conditions: for inhibition at 6 µM: NCI-H1975, 72 h
[9] = system: A549; assay: Antiproliferative activity against human A549 cells assessed as inhibition of cell proliferation at 2 uM after 72 hrs by MTT assay relative to control; assay type: functional; conditions: for inhibition at 2 µM: A549, 72 h
[10] = system: NCI-H1650; assay: Antiproliferative activity against human NCI-H1650 cells assessed as inhibition of cell proliferation at 6 uM after 72 hrs by MTT assay relative to control; assay type: functional; conditions: for inhibition at 6 µM: NCI-H1650, 72 h
[11] = molecular target: T1, [Pyruvate dehydrogenase (acetyl-transferring)] kinase isozyme 1, mitochondrial; assay: Inhibition of recombinant human N-terminal His6/Sumo-tagged PDK1 (29 to 436 residues) expressed in Escherichia coli BL21 at 1 uM by kinase-glo luminescence assay relative to control
[12] = system: NCI-H1650; assay: Antiproliferative activity against human NCI-H1650 cells assessed as inhibition of cell proliferation at 2 uM after 72 hrs by MTT assay relative to control; assay type: functional; conditions: for inhibition at 2 µM: NCI-H1650, 72 h
[13] = species: Sus scrofa; assay: Inhibition of porcine PDK1 assessed as activation of pyruvate dehydrogenase complex at 1 uM measured after 3 mins

Row | inhibition [5] | inhibition [11] | SMILES | inhibition at 6 µM [1] [%] | inhibition at 12 µM [2] [%] | inhibition at 12 µM [3] [%] | inhibition at 2 µM [6] [%] | inhibition at 12 µM [7] [%] | inhibition at 6 µM [8] [%] | inhibition at 2 µM [9] [%] | inhibition at 6 µM [10] [%] | inhibition at 2 µM [12] [%] | inhibition [13] | other results
1 | Active | 47.1% | COc1ccc(C(=O)C(Cl)Cl)cc1Cl | 56.7 | 98.7 | 88.4 | 51.7 | 99.4 | 95.8 | 17 | 78.5 | 36.5 | – | IC50 [4]: 2 µM
2 | Active | 19.7 to 67.9% | CCCCOc1ccc(C(=O)C(Cl)Cl)cc1 | 46.6 | 97.6 | 67 | 46.5 | 97.4 | 92 | 20.9 | 70.7 | 30.7 | – | –
3 | Active | 19.7 to 67.9% | CCCOc1ccc(C(=O)C(Cl)Cl)cc1 | 58.9 | 95.3 | 79.7 | 44.3 | 97.7 | 93 | 8.4 | 66 | 27.4 | – | IC50 [4]: 2 µM
4 | Active | 19.7 to 67.9% | CCCCCOc1ccc(C(=O)C(Cl)Cl)cc1 | 60.4 | 98.2 | 85 | 57.5 | 98.5 | 96.6 | 20.2 | 81.5 | 32.8 | – | –
5 | – | 15.1% | O=C(c1cccc(CCl)c1)C(Cl)Cl | 99.5 | 100 | 100 | 99 | 99.5 | 99.3 | 73.3 | 100 | 97.6 | – | IC50 [4]: 0.2 µM
6 | Active | 19.7 to 67.9% | O=C(c1ccc(OCCCBr)cc1)C(Cl)Cl | 80.1 | 92.5 | 98.4 | 69.8 | 99.9 | 99.6 | 21.7 | 65.4 | 27.9 | – | –
7 | Active | 59.9% | CC(C)c1ccc(C(=O)C(Cl)Cl)cc1 | 65.8 | 91.2 | 88.1 | 60.1 | 96.7 | 96.1 | 24.4 | 65.3 | 26.6 | – | –
8 | Active | 19.7 to 67.9% | CC1CCOc2ccc(C(=O)C(Cl)Cl)cc21 (configuration not stated) | 77.7 | 94.8 | 93.4 | 69.4 | 99.6 | 98 | 24.1 | 67.3 | 27 | – | –
9 | – | Active | O=C(c1ccc(OCCCCCBr)c([N+](=O)[O-])c1)C(Cl)Cl | 29.4 | 78.6 | 69.7 | 6.9 | 99.7 | 49.8 | 6.9 | 39.7 | – | Active | inhibition [12]: inactive
10 | – | Active | COc1ccc(C(=O)C(Cl)Cl)cc1[N+](=O)[O-] | 46.7 | 97.2 | 81.8 | 22.3 | 97.4 | 89.4 | 17.7 | 75.7 | 30 | Active | –
11 | – | Active | CCCOc1ccc(C(=O)C(Cl)Cl)cc1[N+](=O)[O-] | 19.5 | 99.9 | 68.4 | 3.4 | 91.6 | 37.8 | – | 38 | 7.6 | Active | inhibition [9]: inactive
12 | – | Active | O=C(c1ccc(OCCCBr)c([N+](=O)[O-])c1)C(Cl)Cl | 84.3 | 74.6 | 97.7 | 60.8 | 99 | 94.5 | 26.8 | 48.1 | 11.5 | Active | –
13 | – | Active | CC(C)Oc1ccc(C(=O)C(Cl)(Cl)Cl)cc1[N+](=O)[O-] | – | 24.7 | 15.9 | – | 35.6 | – | – | – | – | Active | inhibition [1]: inactive; inhibition [6]: inactive; inhibition [8]: inactive; inhibition [9]: inactive; inhibition [10]: inactive; inhibition [12]: inactive
14 | Active | 19.7 to 67.9% | O=C(c1ccc(-c2ccccc2)cc1)C(Cl)Cl | 75.9 | 96.4 | 91.2 | 56.3 | 99.4 | 90.3 | 22.5 | 79.2 | 42.2 | – | IC50 [4]: 2 µM

Row | SMILES | inhibition [5] | inhibition [11] | inhibition at 6 µM [1] [%] | inhibition at 12 µM [2] [%] | inhibition at 12 µM [3] [%] | inhibition at 2 µM [6] [%] | inhibition at 12 µM [7] [%] | inhibition at 6 µM [8] [%] | inhibition at 2 µM [9] [%] | inhibition at 6 µM [10] [%] | inhibition at 2 µM [12] [%] | inhibition [13] | other results
15 | O=C(c1cccnc1)C(Cl)(Cl)Cl | – | inactive | – | – | – | – | – | – | – | – | – | inactive | inhibition [1]: inactive; inhibition [2]: inactive; inhibition [3]: inactive; inhibition [6]: inactive; inhibition [7]: inactive; inhibition [8]: inactive; inhibition [9]: inactive; inhibition [10]: inactive; inhibition [12]: inactive
16 | O=C(Oc1ccccc1)C(Cl)Cl | – | inactive | – | – | – | – | – | – | – | – | – | inactive | inhibition [1]: inactive; inhibition [2]: inactive; inhibition [3]: inactive; inhibition [6]: inactive; inhibition [7]: inactive; inhibition [8]: inactive; inhibition [9]: inactive; inhibition [10]: inactive; inhibition [12]: inactive
17 | O=C(c1cccs1)C(Cl)Cl | – | inactive | 34.7 | 73.4 | 71.1 | 26.8 | 95.8 | 62.1 | 6.9 | 42.5 | 16.8 | 3.9% | –
18 | O=C(c1cccnc1)C(Cl)Cl | – | inactive | – | 56.5 | – | – | 52 | 9.3 | – | 29.1 | – | inactive | inhibition [1]: inactive; inhibition [3]: inactive; inhibition [6]: inactive; inhibition [9]: inactive; inhibition [12]: inactive
19 | O=C(c1ccccn1)C(Cl)Cl | – | inactive | 15.3 | 90.5 | 31.5 | 15.9 | 98.5 | 73.1 | 3.3 | 39.6 | 14.8 | 10.2% | –
